Consider 1 molecule from paper PMC5342071, “A first generation inhibitor of human Greatwall kinase, enabled by structural and functional characterisation of a minimal kinase domain construct” (Oncotarget, 2016).

Structures are written as SMILES.

In this experiment the target is T1, hGWL-KinDom (Homo sapiens, UniProt Q96GX5).
T1 construct: that encoded amino acids (aa) 1-194 + ‘RTFC’ + 740-879 of hGWL; GST (rhinovirus 3C-protease cleavable) (N, cleaved yes); made in house; host or cells: E. coli Rosetta2(DE3)
T1 sequence (Q96GX5 with tags, fused parts or gaps limits assumed): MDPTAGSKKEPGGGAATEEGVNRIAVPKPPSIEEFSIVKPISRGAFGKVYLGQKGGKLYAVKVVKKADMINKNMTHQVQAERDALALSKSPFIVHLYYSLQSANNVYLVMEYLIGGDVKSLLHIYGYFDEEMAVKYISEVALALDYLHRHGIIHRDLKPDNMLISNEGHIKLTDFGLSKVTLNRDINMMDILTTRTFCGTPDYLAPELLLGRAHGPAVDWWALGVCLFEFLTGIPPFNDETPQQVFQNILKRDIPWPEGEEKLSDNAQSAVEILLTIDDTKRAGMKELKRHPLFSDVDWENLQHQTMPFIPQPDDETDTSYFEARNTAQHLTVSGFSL
The experiment can be described thus: Thermal shift assay. It is filed as binding. The following applies: read-out: temperature midpoint shift (ΔTm). On the procedure:
Assays were performed using a modified version of the protocol previously described in [41].
The protein crystallised in spacegroup P212121, with two molecules comprising the asymmetric unit. For one molecule (chain A), amino acids 30-72, 86-177 and 740-854 are readily discernible in electron density maps, whilst for the other (chain B) amino acids 30-72, 86-177 and 740-854 are readily discernible.
For thermal denaturation, samples containing protein at 1.5 µM and 5 x SYPRO Orange (diluted from a 5000 x stock supplied in DMSO; Sigma-Aldrich, Gillingham, UK) were prepared in sample buffer: 20 mM HEPES.NaOH pH 7.5, 300 mM NaCl, 0.5 mM TCEP. Denaturation curves were monitored in 96-well PCR plates using a Roche LightCycler 480 II, with 465 and 580 nm filters for excitation and emission wavelengths, respectively. The program was as follows: 1 min at 20°C, followed by a continuous increment of 0.03°C/s to a final temperature of 85°C. Temperature midpoints (Tm) for each folded to unfolded transition were determined by non-linear regression fitting of a modified Boltzmann model to normalized data in Prism 6.0 (version 6.0h, GraphPad Software, La Jolla, CA USA). […]
After stopping the above non-radioactive kinase assay with 1 volume of Kinase-Glo Max reagent the mixture was allowed to incubate for a further 15 min. […] As this assay measures ATP, activity or ATP turnover was measured as the -ΔRLU. […]

In the case of `CN[C@@H]1C[C@H]2O[C@@](C)([C@@H]1OC)n1c3ccccc3c3c4c(c5c6ccccc6n2c5c31)C(=O)NC4` [STU, staurosporine], the ΔTm at 10 µM turned out to be 8.2 °C.
